The values that follow come from patent publication US11084809B2, “N-((HET)arylmethyl)-heteroaryl-carboxamides compounds as kallikrein inhibitors” (KALVISTA PHARMACEUTICALS LIMITED, priority 2014, dated 2021).

What all share (format): biochemical
Assay [1] deals with Human XIa (Homo sapiens (Human), UniProt P03951). Briefly: Determination of the % inhibition for XIa. Conditions: 40 μM test compound, 25° C. On the procedure:
Determination of the % Inhibition for XIa
Human XIa (Enzyme Research Laboratories) was incubated at 25° C. with the fluorogenic substrate Z-Gly-Pro-Arg-AFC and 40 μM of the test compound. Residual enzyme activity (initial rate of reaction) was determined by measuring the change in optical absorbance at 410 nm.

Assay [2] deals with Human KLK1 (Homo sapiens (Human), UniProt P06870). The experiment in a line: Determination of the IC50 for KLK1. Conditions: human KLK1, 25° C., substrate H-DVal-Leu-Arg-AFC. On the procedure: Determination of the IC50 for KLK1
Human KLK1 (Callbiochem) was incubated at 25° C. with the fluorogenic substrate H-DVal-Leu-Arg-AFC and various concentrations of the test compound. Residual enzyme activity (initial rate of reaction) was determined by measuring the change in […] at 410 nm and the IC50 value for the test compound was determined.

Assay [3] deals with Human plasma kallikrein (Homo sapiens (Human), UniProt P03952). The experiment in a line: Determination of the IC50 for plasma kallikrein. The following applies: read-out: IC50 (human PKal). The protocol:
Determination of the IC50 for plasma kallikrein
Human plasma kallikrein (Protogen) was incubated at 25° C. with the fluorogenic substrate H-DPro-Phe-Arg-AFC and various concentrations of the test compound. Residual enzyme activity (initial rate of reaction) was determined by measuring the change in […] at 410 nm and the IC50 value for the test compound was determined.

Some results are limits rather than exact numbers.

Human XIa, sequence (P03951 388-625): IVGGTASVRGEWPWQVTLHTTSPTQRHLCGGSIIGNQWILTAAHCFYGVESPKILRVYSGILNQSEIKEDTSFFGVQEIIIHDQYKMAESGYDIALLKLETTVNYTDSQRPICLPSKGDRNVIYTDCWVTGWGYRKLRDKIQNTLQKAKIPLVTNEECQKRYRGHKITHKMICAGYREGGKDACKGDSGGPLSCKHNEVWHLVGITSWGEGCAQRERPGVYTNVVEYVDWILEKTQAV
Human XIa, sequence (P03951 19-387 partner): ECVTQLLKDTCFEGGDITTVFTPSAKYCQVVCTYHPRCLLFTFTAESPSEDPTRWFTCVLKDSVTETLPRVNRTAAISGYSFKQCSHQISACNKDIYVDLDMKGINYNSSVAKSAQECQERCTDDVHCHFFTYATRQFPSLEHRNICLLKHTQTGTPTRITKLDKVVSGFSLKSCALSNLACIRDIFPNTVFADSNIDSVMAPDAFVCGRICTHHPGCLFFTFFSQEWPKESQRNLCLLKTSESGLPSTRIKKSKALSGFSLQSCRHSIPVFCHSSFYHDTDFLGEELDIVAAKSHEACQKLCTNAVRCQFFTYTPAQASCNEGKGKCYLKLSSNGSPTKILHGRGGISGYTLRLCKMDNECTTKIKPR
Human KLK1, sequence (P06870 25-262): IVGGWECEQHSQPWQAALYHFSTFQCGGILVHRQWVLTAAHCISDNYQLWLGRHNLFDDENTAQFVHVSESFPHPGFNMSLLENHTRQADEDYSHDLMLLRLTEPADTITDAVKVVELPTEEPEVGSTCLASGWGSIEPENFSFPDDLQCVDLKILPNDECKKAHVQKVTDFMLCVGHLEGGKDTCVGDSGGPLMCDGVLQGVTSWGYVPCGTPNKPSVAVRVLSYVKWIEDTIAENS
Human plasma kallikrein, sequence (P03952 391-638): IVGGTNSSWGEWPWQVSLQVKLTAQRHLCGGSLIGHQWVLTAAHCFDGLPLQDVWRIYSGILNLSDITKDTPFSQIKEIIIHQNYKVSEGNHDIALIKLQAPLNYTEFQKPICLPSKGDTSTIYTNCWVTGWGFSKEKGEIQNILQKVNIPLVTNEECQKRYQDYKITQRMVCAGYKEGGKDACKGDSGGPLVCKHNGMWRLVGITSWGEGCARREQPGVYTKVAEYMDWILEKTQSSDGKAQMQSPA
Human plasma kallikrein, sequence (P03952 20-390 partner): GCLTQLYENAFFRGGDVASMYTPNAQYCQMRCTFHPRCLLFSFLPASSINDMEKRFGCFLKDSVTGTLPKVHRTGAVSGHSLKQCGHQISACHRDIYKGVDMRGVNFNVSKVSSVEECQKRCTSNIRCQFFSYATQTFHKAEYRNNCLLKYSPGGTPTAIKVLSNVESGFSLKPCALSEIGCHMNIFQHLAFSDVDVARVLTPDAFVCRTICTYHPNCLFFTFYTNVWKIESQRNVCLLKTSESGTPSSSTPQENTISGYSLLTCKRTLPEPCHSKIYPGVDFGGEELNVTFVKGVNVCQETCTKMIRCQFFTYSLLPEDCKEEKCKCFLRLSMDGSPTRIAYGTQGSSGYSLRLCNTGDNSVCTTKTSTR

`COc1cccc(CNC(=O)c2cn(Cc3ccc(Cn4ccccc4=O)cc3)nc2C2CC2)c1F` [Example 52, 3-cyclopropyl-N-[(2-fluoro-3-methoxyphenyl)methyl]-1-({4-[(2-oxopyridin-1-yl)methyl]phenyl}methyl)pyrazole-4-carboxamide]: the “% Inhibition @ 40 μM (human FXIa)” value in assay [1] came out at 1%.

The IC50 is the concentration needed to halve the response being measured. For the compound “N-[(2,6-dimethylphenyl)methyl]-1-({4-[(4-methylpyrazol-1-yl)methyl]phenyl}methyl)-3-(trifluoromethyl)pyrazole-4-carboxamide [Example 25]”, the results for the IC50 in assay [2] and in assay [3] were more than 10 µM and 1.84 µM, respectively.

As to `Nc1nn(Cc2ccc(Cn3ccccc3=O)cc2)cc1C(=O)NCc1ccc(OC(F)(F)F)cc1` [Example 58, 3-amino-1-({4-[(2-oxopyridin-1-yl)methyl]phenyl}methyl)-N-{[4-(trifluoromethoxy)phenyl]methyl}pyrazole-4-carboxamide], in assay [1], the “% Inhibition @ 40 μM (human FXIa)” value is on record as 0%.

Consider “N-[(2,4-dimethylphenyl)methyl]-1-({4-[(4-methylpyrazol-1-yl)methyl]phenyl}methyl)-3-(trifluoromethyl)pyrazole-4-carboxamide [Example 24]”, for which the figures for the IC50 in assay [2] and in assay [3] were more than 10 µM and 0.717 µM, respectively.

With `NC(=O)c1cccc(CNC(=O)c2cn(Cc3ccc(Cn4ccccc4=O)cc3)nc2C2CC2)c1` [Example 49, N-[(3-carbamoylphenyl)methyl]-3-cyclopropyl-1-({4-[(2-oxopyridin-1-yl)methyl]phenyl}methyl)pyrazole-4-carboxamide], the “% Inhibition @ 40 μM (human FXIa)” value in assay [1] is recorded as 0%.

`CCOc1cccc(CNC(=O)c2cn(Cc3ccc(Cn4cc(C)cn4)cc3)nc2C(F)(F)F)c1` [Example 6, N-[(3-ethoxyphenyl)methyl]-1-({4-[(4-methylpyrazol-1-yl)methyl]phenyl}methyl)-3-(trifluoromethyl)pyrazole-4-carboxamide] had an IC50 in assay [2] of more than 10 µM. The “% Inhibition @ 40 μM (human FXIa)” value in assay [1] is given as 0%.
